Experimental data from patent US5236946A, “Amino acid esters of cycloaliphatic alcohols and their use in treating lipemic disorders” (Panmedica S.A., priority 1986, dated 1993).
Counter-ions that a name gives are not always drawn.

Legend:
[1] = test system: experimental hyperlipemia induced by Triton (rats); experiment: Activity on the experimental hyperlipemia induced by Triton; format: in vivo; settings: rat, Triton 300 mg/kg i.p., 18 hours
Protocol: EXAMPLE XV-ACTIVITY ON THE EXPERIMENTAL HYPERLIPEMIA INDUCED BY TRITON
Groups of 10 fasted rats weighing about 200 g are treated with an intraperitoneal injection of Triton at a dose of 300 mg/kg; immediately afterwards, the products are administered orally.
After 18 hours, the cholesterol and triglycerides are determined.

[2] = test system: rats rendered hyperlipemic with olive oil; experiment: Hypolipemic activity in rats rendered hyperlipemic with olive oil; format: in vivo; settings: rat, atherogenic diet enriched with olive oil
Protocol: EXAMPLE XVI-HYPOLIPEMIC ACTIVITY IN RATS RENDERED HYPERLIPEMIC WITH OLIVE OIL
A group of rats is placed on an atherogenic hyperlipemic diet enriched with olive oil and the animals are then treated per os. The cholesterol and triglycerides are then determined as in the previous example. […]

[3] = biological target: T1, 3-hydroxy-3-methylglutaryl coenzyme A reductase (Rattus norvegicus, UniProt P51639); experiment: Inhibitory activity towards 3-hydroxy-3-methylglutaryl coenzyme A reductase (method of Shefer et al.); format: biochemical
T1 sequence (P51639 1-887): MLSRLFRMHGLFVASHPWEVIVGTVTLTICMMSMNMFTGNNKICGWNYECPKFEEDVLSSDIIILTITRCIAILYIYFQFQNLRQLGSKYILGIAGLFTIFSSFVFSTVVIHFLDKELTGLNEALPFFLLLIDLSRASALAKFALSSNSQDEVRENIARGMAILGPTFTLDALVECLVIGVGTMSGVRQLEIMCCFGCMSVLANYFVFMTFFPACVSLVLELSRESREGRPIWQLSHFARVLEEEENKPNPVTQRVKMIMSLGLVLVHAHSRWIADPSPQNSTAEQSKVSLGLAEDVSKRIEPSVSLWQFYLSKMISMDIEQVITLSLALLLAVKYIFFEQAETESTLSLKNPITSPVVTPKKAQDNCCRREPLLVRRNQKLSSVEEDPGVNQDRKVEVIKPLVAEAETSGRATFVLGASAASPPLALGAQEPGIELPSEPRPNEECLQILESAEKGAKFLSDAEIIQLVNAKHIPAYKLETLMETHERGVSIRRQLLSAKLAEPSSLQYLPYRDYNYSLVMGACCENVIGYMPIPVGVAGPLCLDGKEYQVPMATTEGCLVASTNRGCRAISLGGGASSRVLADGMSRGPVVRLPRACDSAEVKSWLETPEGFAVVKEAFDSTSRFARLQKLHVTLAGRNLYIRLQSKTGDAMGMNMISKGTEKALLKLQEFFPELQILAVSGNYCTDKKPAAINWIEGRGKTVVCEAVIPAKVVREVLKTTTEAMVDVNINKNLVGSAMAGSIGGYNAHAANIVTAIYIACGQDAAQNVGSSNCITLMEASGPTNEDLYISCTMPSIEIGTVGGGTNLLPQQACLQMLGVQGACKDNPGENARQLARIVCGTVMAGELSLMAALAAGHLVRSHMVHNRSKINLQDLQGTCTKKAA
Description: EXAMPLE XVII-DETERMINATION OF THE INHIBITORY ACTIVITY OF THE COMPOUNDS TOWARDS 3-HYDROXY-3-METHYLGLUTARYL COENZYME A REDUCTASE
The method used is the one described by Shefer et al. (J. Lipid Res. 1972, 13, 402); cf. also Stokker (J. Med. Chem. 1985, 28, 357).

cholesterol synthesis = settings: cited from earlier work
[4] = oral 150 mg/kg, listed as Ex. I
[5] = per os 100 mg/kg, listed as Ex. I
[6] = oral 150 mg/kg, listed as Ex. IV
[7] = per os 100 mg/kg, listed as Ex. IV
[8] = oral 150 mg/kg, listed as Ex. III
[9] = per os 100 mg/kg, listed as Ex. III

Row | SMILES | IC50 [3] | Cholesterol level ([1]; oral 150 mg/kg) | Triglyceride level ([1]; oral 150 mg/kg) | other results
1 | CC1CC(OC(=O)[C@@H]2CCC(=O)N2)CC(C)(C)C1 (single isomer, unassigned) [Example I, 3,3,5-Trimethylcyclohexyl L-pyroglutamate] | 100 nM |  |  | Cholesterol level ([1]; oral 50 mg/kg): 2.80 g/L; Triglyceride level ([1]; oral 50 mg/kg): 1.46 g/L; Cholesterol level [1, 4]: 1.95 g/L; Triglyceride level [1, 4]: 0.93 g/L; Cholesterol level ([2]; per os 25 mg/kg): 1.73 g/L; Triglyceride level ([2]; per os 25 mg/kg): 1.39 g/L; Cholesterol level [2, 5]: 1.50 g/L; Triglyceride level [2, 5]: 0.80 g/L
2 | CC1CC(OC(=O)[C@@H]2CCC(=O)N2)CC(C)(C)C1 (single isomer, unassigned) [Example IV, 3,3,5-TRIMETHYLCYCLOHEXYL PYROGLUTAMATE] | 150 nM |  |  | Cholesterol level [1, 6]: 2.15 g/L; Triglyceride level [1, 6]: 0.85 g/L; Cholesterol level [2, 7]: 1.47 g/L; Triglyceride level [2, 7]: 0.80 g/L
3 | CN(C)CCCN(C)[C@H]1CC[C@H]2[C@@H]3CC=C4C[C@@H](O)CC[C@]4(C)[C@H]3CC[C@]12C [20, 25-Diazacholesterol] |  |  |  | inhibits cholesterol synthesis (cholesterol synthesis): inhibits cholesterol synthesis
4 | CC1CC(OC(=O)[C@@H]2CCC(=O)N2)CC(C)(C)C1 (some centres unmarked) [Example III, 3,3,5-trimethylcyclohexyl pyroglutamate] |  |  |  | Cholesterol level [1, 8]: 2.00 g/L; Triglyceride level [1, 8]: 1.10 g/L; Cholesterol level [2, 9]: 1.47 g/L; Triglyceride level [2, 9]: 1.01 g/L
5 | CC1CC(C)CC(OC(=O)[C@@H]2CCC(=O)N2)C1 (stereo partly drawn) [Example IX, L-Pyroglutamate of 3,5-dimethylcyclohexanol] | 400 nM | 2.10 g/L | 1.30 g/L | 
6 | CC1CC(OC(=O)[C@@H](N)CCC(N)=O)CC(C)(C)C1 (stereo partly drawn) [Example V, trans-3,3,5-trimethylcyclohexyl L-γ-amidoglutamate hydrochloride] | 80 nM | 1.95 g/L | 1.15 g/L | Cholesterol level ([2]; per os 100 mg/kg): 1.62 g/L; Triglyceride level ([2]; per os 100 mg/kg): 0.92 g/L
7 | CC1CC(OC(=O)[C@@H](N)CCC(=O)O)CC(C)(C)C1 (stereo partly drawn) [Example VI, TRANS-3,3,5-TRIMETHYLCYCLOHEXYL L-α-GLUTAMATE HYDROCHLORIDE] | 120 nM | 2.50 g/L | 2.00 g/L | 
8 | CC(=O)N[C@@H](CC(=O)O)C(=O)OC1CC(C)CC(C)(C)C1 (stereo partly drawn) [Example VII, MAGNESIUM SALT OF 3,3,5-TRIMETHYLCYCLOHEXYL N-ACETYL-L-α-ASPARTATE] | 500 nM | 3.00 g/L | 2.70 g/L | 
9 | O=C1CC[C@@H](C(=O)OC2CCCCC2)N1 [Example VIII, L-Pyroglutamate of cyclohexanol] | 550 nM |  |  | 
10 | CC1CCCC(C)C1OC(=O)[C@@H]1CCC(=O)N1 (stereo partly drawn) [Example X, L-Pyroglutamate of 2,6-dimethylcyclohexanol] | 400 nM |  |  | 
11 | CC1=CC(OC(=O)[C@@H]2CCC(=O)N2)CC(C)(C)C1 (stereo partly drawn) [Example XI, L-Pyroglutamate of 3,5,5-trimethylcyclohex-2-en-1-ol] | 130 nM | 2.00 g/L | 1.92 g/L | 
12 | CC1(OC(=O)[C@@H]2CCC(=O)N2)CCCC1 [Example XII, L-Pyroglutamate of 1-methylcyclopentanol] | 600 nM |  |  | 
13 | CC1=CCC(OC(=O)[C@@H]2CCC(=O)N2)(C(C)C)CC1 (stereo partly drawn) [Example XIII, L-Pyroglutamate of terpin-4-enol] | 210 nM | 1.90 g/L | 1.20 g/L | 
14 | CC1=CCC(C(C)(C)OC(=O)[C@@H]2CCC(=O)N2)CC1 (stereo partly drawn) [Example XIV, L-Pyroglutamate of terpineol] | 300 nM | 2.12 g/L | 1.10 g/L | 
15 | O=C(O)c1cccnc1 [nicotinic acid, reference compound] |  |  |  | Cholesterol level ([1]; oral 500 mg/kg): 5.00 g/L; Triglyceride level ([1]; oral 500 mg/kg): 1.41 g/L
